Measured values from patent US4127671A, “P-acetamidophenyl diethylaminoacetate” (Societe Anonyme dite: HEXACHIME, priority 1977, dated 1978).

How the values were obtained:
[1] = tested on: reactions of pain (abdominal twists), phenyl benzoquinone; experiment: analgesic action: inhibition of phenyl benzoquinone-induced reactions of pain (abdominal twists); assay type: in vivo, male mice (SPF, OFI strain); settings: mice, pain reactions counted from 5 to 10 minute
Description: (§1) The analgesic action of the product was determined by the following method: batches of 6 male mice (SPF, OFI strain), weighing 19 to 20 g, received the test product by intravenous means. 0.3 c.c. per mouse of a 0.02% solution of phenyl benzoquinone was simultaneously injected by intraperitoneal means and the number of reactions of pain (abdominal twists) was counted from the 5 to the 10 minute after the latter treatment.
The following Table I gives the inhibitory percentage of these reactions.

[2] = solubility in water; assay type: physicochemical; settings: novel derivative
[3] = stability of aqueous solutions; assay type: physicochemical; settings: with the passage of time
[4] = release of p-acetamidophenol in the organism
[5] = pharmacological properties compared with paracetamol; assay type: in vivo
Description: as §1
The antihyperthermisant action of the product according to the invention was determined by the following method: batches of 5 male Fauve de Bourgogne rabbits weighing 2 to 3 kg receive by intraveneous means 1 c.c./kg of an endotoxin solution of Salmonella abortus equivalent to 1 γ/kg in the physiological serum.
Two and a half hours later, the test product was administered in a physiological solution by intraveneous means.
The rectal temperature was recorded at regular intervals by an Ellab thermocouple. The probe was pressed 80 mm in.

SMILES: CCN(CC)CC(=O)Oc1ccc(NC(C)=O)cc1 [p-acetamidophenyl diethylaminoacetate]
- % of inhibition ([1]; 8 mg/kg I.V.): 26%
- % of inhibition ([1]; 16 mg/kg I.V.): 41%
- % of inhibition ([1]; 32 mg/kg I.V.): 68%
- % of inhibition ([1]; 64 mg/kg I.V.): 94%
- solubility in water [2]: very soluble in water
- stability of aqueous solutions [3]: stable with the passage of time
- release of p-acetamidophenol [4]: rapidly releases p-acetamidophenol
- pharmacological properties [5]: comparable to those of paracetamol
